Assays:
[1] = system: obstruction-induced persistent progression of renal fibrosis; assay: Kidney transcriptome (RNA sequencing, ingenuity pathway analysis) in RUUO mice; assay type: in vivo, mouse; details: treated after the obstruction was released (7/15*d)
From the text: FIG. 10A and FIG. 10B display how WRG-28 and Av treatments effectively reduce RUUO-induced overwhelming fibrosis and inflammation. In FIG. 10A, total ribonucleic acid (RNA) extracts from control mice (sham) and mice treated with DMSO, WRG-28, or Av after the obstruction was released (7/15*d) underwent ingenuity pathway analysis (IPA). Both FIG. 10A and FIG. 10B illustrate large-scale transcriptome analysis, further affirming the potent effects of WRG-28 and Av in preventing and protecting kidneys from progressive fibrosis.
Total RNA was extracted from kidneys by homogenizing the samples in TRIzol reagent (Invitrogen). Chloroform was added and the homogenate separates into three layers, the upper clear aqueous containing RNA was transferred into a new tube, and RNA was precipitated by adding isopropanol. The pellets were washed with 70% ethanol and then dissolved in RNase-free water. The RNA passes the quality control, including RNA integrity number (RIN) >7, OD260/OD280 ˜1.8, etc., were sent for sequencing. Transcriptomes were analyzed by ingenuity pathway analysis (IPA).
Total ribonucleic acid (RNA) was extracted from […]: control mice (sham) and mice that received treatments with DMSO, WRG-28, or Av after the obstruction was released (7/15*d). Transcriptomes were then analyzed by ingenuity pathway analysis (IPA). […]

CRAC channel = CRAC channel (Homo sapiens, UniProt Q96D31); assay: SOCE in T cells; assay type: cell-based; parameters: endogenous in cells; host or cells: HEK293T; details: 10 μM
Chain of CRAC channel (Q96D31 whole entry): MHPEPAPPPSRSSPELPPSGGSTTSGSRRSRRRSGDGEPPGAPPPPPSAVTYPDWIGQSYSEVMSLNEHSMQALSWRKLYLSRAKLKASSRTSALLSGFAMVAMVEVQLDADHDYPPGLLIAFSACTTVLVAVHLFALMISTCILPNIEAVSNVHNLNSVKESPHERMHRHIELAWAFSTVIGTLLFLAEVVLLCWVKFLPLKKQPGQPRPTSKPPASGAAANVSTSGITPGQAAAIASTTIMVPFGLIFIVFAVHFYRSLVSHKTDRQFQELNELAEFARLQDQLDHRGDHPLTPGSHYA
Method: The effects of BTP2, WRG-28, Av, and CM-4620 on SOCE were evaluated in T cells (FIG. 4A) and macrophages (FIG. 4E). Cells were cultured on glass-bottom 96-well plates and pretreated with various compounds (10 μM) while being loaded with Fura 2-AM. Subsequently, the cytosolic calcium signal waves were recorded, and the second peak of each wave and rate of entry were assessed. Each bar represents the mean value derived from, 43 to 111 cells for T cells (FIG. 4A), and 52 to 91 cells for macrophages (FIG. 4E). Cytokine induction in T cells and macrophages was conducted as described in the methods section. The levels of cytokines, including IL-2, TNF-α, and IL-6 in the culture medium were assessed using ELISA kits for T cells (FIG. 4B, FIG. 4C, and FIG. 4D) and macrophages (FIG. 4F, FIG. 4G, and FIG. 4H), respectively. Each bar represents the mean±SEM. In all the graphs, *, **, and *** denote p-values of <0.05, 0.01, and 0.001, respectively. […]
Cells cultured on a glass-bottom 96 well plate for 48 hours were treated with different compounds (10 μM) and Fura 2-AM (1 μM) simultaneously in a solution containing 145 mM NaCl, 2.8 mM KCl, 2 mM CaCl2, 2 mM MgCl2, 10 mM D-glucose, 10 mM HEPES, pH 7.4 for 40 minutes in the dark. […] All the images were analyzed by using IGOR Pro software. […]

`CCNS(=O)(=O)c1ccc(COc2ccc3nc4ccc(=O)cc-4oc3c2)cc1` [WRG-28] was tested. Which “inflammatory responses and fibrotic signaling pathways (transcriptome, IPA)” value [1] did it give?
The value was “reduced”.

And the “SOCE in T cells” value (CRAC channel)?
Its value is “higher efficacy compared to Av”.
